Data as given in ChEMBL document CHEMBL5729649, “Enzyme inhibitors” (2023).
pIC50: −log10 of the molar value.

Columns and labels:
Coagulation factor XI = Coagulation factor XI (Homo sapiens, UniProt P03951); test: (§1) Determination of the % Inhibition for FXIa: FXIa inhibitory activity in vitro was determined using standard published methods (see e.g. Johansen et al., Int. J. Tiss. Reac. 1986, 8, 185; Shori et al., Biochem. Pharmacol., 1992, 43, 1209; Sturzebecher et al., Biol. Chem. Hoppe-Seyler, 1992, 373, 1025). Human FXIa (Enzyme Research Laboratories) was incubated at 25° C. with the fluorogenic substrate Z-Gly-Pro-Arg-AFC and 40 μM of the test compound (or alternatively at various concentrations of the test compound in order to determine IC50). Residual enzyme activity (initial rate of reaction) was determined by measuring the change in optical absorbance at 410 nm and the IC50 value for the test compound was determined.
Chain of Coagulation factor XI (P03951 19-387 limits assumed): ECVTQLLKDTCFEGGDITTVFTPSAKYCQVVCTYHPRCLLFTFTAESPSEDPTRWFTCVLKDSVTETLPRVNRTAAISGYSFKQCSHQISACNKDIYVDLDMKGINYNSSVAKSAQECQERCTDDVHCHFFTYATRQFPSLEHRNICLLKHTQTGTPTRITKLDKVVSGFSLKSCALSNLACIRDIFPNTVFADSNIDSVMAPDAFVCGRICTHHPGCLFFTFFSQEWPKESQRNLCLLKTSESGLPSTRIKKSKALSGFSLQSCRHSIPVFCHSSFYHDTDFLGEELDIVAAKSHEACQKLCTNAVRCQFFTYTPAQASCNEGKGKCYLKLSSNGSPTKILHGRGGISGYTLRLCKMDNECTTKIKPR
Chain of Coagulation factor XI (P03951 388-625 limits assumed): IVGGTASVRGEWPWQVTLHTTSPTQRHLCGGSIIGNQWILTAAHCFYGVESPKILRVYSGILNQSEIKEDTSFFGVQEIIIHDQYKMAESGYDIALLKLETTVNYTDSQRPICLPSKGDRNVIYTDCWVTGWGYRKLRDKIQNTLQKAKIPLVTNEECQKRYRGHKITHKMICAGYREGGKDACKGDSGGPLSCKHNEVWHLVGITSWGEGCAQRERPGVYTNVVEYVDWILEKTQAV

Plasma kallikrein = Plasma kallikrein (Homo sapiens, UniProt P03952); test: as §1, with “IC50” for “% Inhibition”, “Plasma Kallikrein: Plasma kallikrein” for “FXIa: FXIa”, “plasma kallikrein (Protogen)” for “FXIa (Enzyme Research Laboratories)”, “H-DPro-Phe-Arg-AFC” for “Z-Gly-Pro-Arg-AFC”, “and” for “and 40 μM of the test compound (or alternatively at”, “compound.” for “compound in order to determine IC50).”
Chain of Plasma kallikrein (P03952 20-390 limits assumed): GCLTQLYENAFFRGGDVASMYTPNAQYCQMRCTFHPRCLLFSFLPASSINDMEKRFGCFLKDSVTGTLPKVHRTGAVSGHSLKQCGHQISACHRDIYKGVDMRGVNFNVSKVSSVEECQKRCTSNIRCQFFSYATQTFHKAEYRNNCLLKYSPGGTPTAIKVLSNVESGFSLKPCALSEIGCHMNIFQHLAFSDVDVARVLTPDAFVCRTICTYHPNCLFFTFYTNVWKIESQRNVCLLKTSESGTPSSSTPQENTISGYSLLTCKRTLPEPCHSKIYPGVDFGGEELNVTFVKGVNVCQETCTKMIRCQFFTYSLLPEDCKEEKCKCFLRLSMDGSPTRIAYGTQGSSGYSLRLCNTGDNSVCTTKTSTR
Chain of Plasma kallikrein (P03952 391-638 limits assumed): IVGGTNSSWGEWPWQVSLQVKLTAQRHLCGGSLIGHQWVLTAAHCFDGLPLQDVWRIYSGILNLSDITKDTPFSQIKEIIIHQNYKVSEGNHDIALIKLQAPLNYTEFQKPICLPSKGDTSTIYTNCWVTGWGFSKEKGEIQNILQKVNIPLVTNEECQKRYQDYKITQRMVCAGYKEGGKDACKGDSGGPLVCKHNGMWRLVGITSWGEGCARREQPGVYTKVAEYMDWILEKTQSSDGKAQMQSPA

Kallikrein-1 = Kallikrein-1 (Homo sapiens, UniProt P06870); test: as §1, with “IC50” for “% Inhibition”, “KLK1: KLK1” for “FXIa: FXIa”, “KLK1 (Callbiochem)” for “FXIa (Enzyme Research Laboratories)”, “H-DVal-Leu-Arg-AFC” for “Z-Gly-Pro-Arg-AFC”, “and” for “and 40 μM of the test compound (or alternatively at”, “compound.” for “compound in order to determine IC50).”
Chain of Kallikrein-1 (P06870 whole entry): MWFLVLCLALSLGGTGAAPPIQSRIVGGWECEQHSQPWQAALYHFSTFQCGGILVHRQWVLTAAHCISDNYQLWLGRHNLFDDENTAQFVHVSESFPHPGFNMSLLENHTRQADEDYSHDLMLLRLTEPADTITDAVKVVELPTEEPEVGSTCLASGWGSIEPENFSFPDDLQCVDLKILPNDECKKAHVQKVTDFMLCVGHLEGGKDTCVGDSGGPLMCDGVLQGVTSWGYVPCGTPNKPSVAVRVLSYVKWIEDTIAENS

pIC50 (Coagulation factor XI)	pIC50 (Plasma kallikrein)	pIC50 (Kallikrein-1)	SMILES
5.74	> 8.00	< 4.40	COCc1nn(Cc2cnc(N3CCCC3)nc2)cc1C(=O)NCc1c(-n2cc(C)nn2)ccc(OC)c1F
6.01	> 8.00	< 4.40	COCc1nn(Cc2cnc(N3CCCC3)nc2)cc1C(=O)NCc1c(-n2ccnn2)ccc(OC)c1F
< 4.40	> 8.00	< 4.40	COCc1nn(Cc2ccc3c(c2)CN(C(C)C)C3)cc1C(=O)NCc1c(-n2cc(C)nn2)ccc(OC)c1F
